Experimental data: patent publication US20230219934A1, “2,3-DISUBSTITUTED PYRIDO[3,4-B]PYRAZINE-CONTAINING COMPOUNDS AS KINASE INHIBITORS” (Purdue Research Foundation, priority 2020, published 2023)

Assays:
[1] = tested on: some lung and colon cancers; experiment: NCI-60 potency comparison on lung and colon cancers; assay type: cell-based; settings: more potently than HSL212
Description: (§1) According to the National Cancer Institute, Bethesda, Md. (the protocol of the Drug Evaluation Branch), the effects of compounds are measured as follows: Cell suspensions are diluted to a target cell density of 5000-40,000 cells per well (based on cell growth characteristics) in a 96-well microtiter plates. The test compounds were evaluated at five concentrations (10-fold dilutions) with the highest concentration being 100 μM. The incubation period was 48 h under 5% carbon dioxide atmosphere and 100% humidity. A sulforhodamine B assay was used to assay the cells. Optical densities of the wells were read by a plate reader the optical densities were processed into GI50 (the concentration that causes 50% growth inhibition).
(§2) The NCI renamed the IC50 value, the concentration of compound that causes 50% growth inhibition, as follows.
(§3) GI50=100×(T−T0)/(C−T0)=50, where T=the optical density of the test well after a 48-h period of exposure to test drug, T0=the optical density at time zero, C=the control optical density. The control is the well not treated with test agent (https://dtp.cancer.gov/databases_tools/docs/compare/compare_methodology.htm).

EKVX (NSCLC) = experiment: NCI-60 GI50 determination, EKVX; assay type: cell-based; settings: Homo sapiens, NCI Developmental Therapeutics Program in-vitro testing, 48 h
Description: as §1, §2, §3

[2] = tested on: K562 cell line (leukemia); experiment: NCI-60 GI50 determination, K562; assay type: cell-based; settings: Homo sapiens, NCI Developmental Therapeutics Program in-vitro testing, 48 h
Description: as §1, §2, §3

[3] = tested on: KM12 (colon and driven by TrkA kinase); experiment: NCI-60 GI50 determination, KM12; assay type: cell-based; settings: Homo sapiens, NCI Developmental Therapeutics Program in-vitro testing, 48 h
Description: as §1, §2, §3

[4] = tested on: cell line harboring RET G810R; experiment: Inhibition of cell line harboring RET G810R; assay type: cell-based; settings: under similar conditions
Tolerability in mice = assay type: in vivo
[5] = tested on: cell lines harboring RET solvent front mutations; experiment: Inhibition of selpercatinib and pralsetinib-resistant cell lines; assay type: cell-based
Oral bioavailability = settings: in vivo
[6] = tested on: tumor harboring solvent front RET810 mutation; experiment: Growth of tumor harboring solvent front RET810 mutation; assay type: in vivo, mice; settings: HSL476 at 25 mg/Kg (daily)
MiaPaCa-2 = experiment: MIA PaCa-2 pancreatic cancer cell growth inhibition (CellTitre Blue viability); assay type: cell-based; settings: Homo sapiens, pancreatic cancer cell line, 72 hours
Description: Cell Culture: MIA PaCa-2 cells were cultured in RPMI media supplemented with 10% fetal bovine serum, 1% GlutaMax Supplement (GIBCO™), 1% Penicillin-Streptomycin (GIBCO™). Cells were seeded in a 96-well plate at 1.1×10^4 cells/mL. Cells were incubated at […] for 24 hours after which plates were treated in triplicates with 10 uL of compound (0.6 μM in DMSO) that was further diluted in the same media (5 μL of compound into 145 μL of media). For IC50 compounds were tested at 9 different concentrations, initial concentration of 0.6 μM in DMSO and subsequently diluted by a third for the other 8 concentrations. This was incubated at […] for 72 hours after which 10 uL of The CellTitre Blue Cell Viability Assay (Promega, Madison Wis.) was added to each well and incubated at […] for 3 hours. Plates were read on a CYTATION™ 5 Cell Imaging Multi-Mode Reader (BioTek). Appropriate controls were used. Graphed using GraphPadPrism 5.0 Software.

Row | SMILES | GI50 (EKVX (NSCLC)) | GI50 [2] | GI50 [3] | IC50 [4] | Effect on growth of tumor harboring solvent front RET810 mutation [6] | further results
1 | Cc1nc2cncc(C#Cc3cncc(C(=O)Nc4ccc(CN5CCN(C)CC5)c(C(F)(F)F)c4)c3)c2nc1C [HSL211, 5-((2,3-dimethylpyrido[3,4-b]pyrazin-8-yl)ethynyl)-N-(4-((4-methylpiperazin-1-yl)methyl)-3-(trifluoromethyl)phenyl)nicotinamide] | 484 nM | < 5 nM | < 5 nM |  |  | Potency relative to HSL212 on some lung and colon cancers [1]: ~100 ×
2 | CN1CCN(Cc2ccc(NC(=O)c3cncc(C#Cc4cncc5nccnc45)c3)cc2C(F)(F)F)CC1 [HSL212, N-(4-((4-methylpiperazin-1-yl)methyl)-3-(trifluoromethyl)phenyl) (pyrido[3,4-b]pyrazin-8-ylethynyl)nicotinamide] | > 50000 nM | < 5 nM | 136 nM |  |  | 
3 | Cc1nc2cnc(N)c(C#Cc3cncc(C(=O)Nc4ccc(CN5CCN(C)CC5)c(C(F)(F)F)c4)c3)c2nc1C [HSL476, 5-((7-amino-2,3-dimethylpyrido[3,4-b]pyrazin-8-yl)ethynyl)-N-(4-((4-methylpiperazin-1-yl)methyl)-3-(trifluoromethyl)phenyl)nicotinamide] |  |  |  | 18 nM | could reduce growth tumor | Tolerability (Tolerability in mice): well tolerated; IC50 [5]: < 20 nM; Oral bioavailability (Oral bioavailability): orally bioavailable; IC50 (MiaPaCa-2): 25 nM
4 | COc1ccc(CN2C3CC2CN(c2ccc(-c4cc(OCC(C)(C)O)cn5ncc(C#N)c45)cn2)C3)cn1 [Selpercatinib, reference compound] |  |  |  | 2620 nM | ineffective | 
5 | Cc1ccc(C(=O)Nc2ccc(CN3CCN(C)CC3)c(C(F)(F)F)c2)cc1C#Cc1cnc2cccnn12 [ponatinib] |  |  |  | 77 nM |  | 
6 | CO[C@]1(C(=O)N[C@@H](C)c2ccc(-n3cc(F)cn3)nc2)CC[C@H](c2nc(C)cc(Nc3cc(C)[nH]n3)n2)CC1 [pralsetinib] |  |  |  | 7320 nM |  | 
